This assay concerns the target BTK (Homo sapiens, UniProt Q06187). The experiment in a line: biochemical.
[1] abbreviates: read-out: BTK inhibition (%), 0.75 uM BTK, […] probe 3l, 15 min preincubation.

70 compounds from PMC8041284, “Tunable Methacrylamides for Covalent Ligand Directed Release Chemistry” (Journal of the American Chemical Society, 2021) can be followed below.

Like-named read-outs stand apart in the source and are kept apart here.

Sequence of BTK (Q06187 402-655 limits assumed): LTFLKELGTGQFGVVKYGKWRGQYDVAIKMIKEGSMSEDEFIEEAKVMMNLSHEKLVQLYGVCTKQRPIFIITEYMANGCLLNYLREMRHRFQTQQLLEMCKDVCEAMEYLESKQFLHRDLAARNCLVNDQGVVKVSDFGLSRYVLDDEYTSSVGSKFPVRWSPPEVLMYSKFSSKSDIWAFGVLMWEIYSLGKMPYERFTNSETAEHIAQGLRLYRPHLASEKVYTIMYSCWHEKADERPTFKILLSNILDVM

In the case of `CCNC1(C(N)=O)CCN(c2ncnc3c2nc(-c2ccccc2Cl)n3-c2ccc(Cl)cc2)CC1` [PCM-0095601], under setting [1], the inhibition at 10 µM is -17.9%.
Still for that read-out and setting: with `Cc1onc(-c2ccccc2)c1-c1ccc(S(N)(=O)=O)cc1` [PCM-0095602] the figure was -38.6%; with `C=C[C@]1(C)C[C@@H](OC(=O)CSC2C[C@H]3CC[C@@H](C2)N3C)[C@]2(C)[C@H](C)CC[C@]3(CCC(=O)[C@H]32)[C@@H](C)[C@@H]1O` (stereo partly shown) [PCM-0095603], 3.9%; with `CN1C(CCl)Nc2cc(Cl)c(S(N)(=O)=O)cc2S1(=O)=O` (stereo not shown) [PCM-0095604], -2.3%.
For the compound `COc1cc2ncnc(Oc3cccc(NC(=O)Nc4cc(C(C)(C)C(F)(F)F)on4)c3)c2cc1OC` [PCM-0095605], the inhibition at 10 µM under setting [1] stood at 4.1%.
Turning to `CNCc1cc(-c2ccccc2F)n(S(=O)(=O)c2cccnc2)c1` [PCM-0095606], the inhibition at 10 µM under setting [1] amounted to 17%.
As for `NC1(C(=O)N[C@@H](CCO)c2ccc(Cl)cc2)CCN(c2ncnc3[nH]ccc23)CC1` [PCM-0095607], the inhibition at 10 µM under setting [1] was 33.1%.
Still for that read-out and setting: the value for `Cc1cc(SCc2sc(-c3ccc(C(F)(F)F)c(F)c3)nc2C)ccc1OCC(=O)O` [PCM-0095608] was -5.4%; that for `Cc1ccc(Sc2ccccc2N2CCNCC2)c(C)c1` [PCM-0095609] was -6.9%; that for `OC[C@H]1O[C@@H](c2ccc(Cl)c(Cc3ccc(O[C@H]4CCOC4)cc3)c2)[C@H](O)[C@@H](O)[C@@H]1O` [PCM-0095610] was 12.4%.
On the same count and under the same terms, with `COc1ccc(C(=O)Nc2sc3c(c2C(N)=O)CCCC3)cc1OC` [PCM-0095611] the figure was 6.9%; with `COc1cc2ncc(-c3ccccc3)nc2cc1OC` [PCM-0095612], -13.8%; with `CCCN1CCCC[C@H]1C(=O)Nc1c(C)cccc1C` [PCM-0095613], -24.9%.
As to `C=CC[C@]1(O)CC[C@H]2[C@@H]3CCC4=CC(=O)CCC4=C3C=C[C@@]21C` [PCM-0095614], the inhibition at 10 µM under setting [1] is -4.7%.
For the compound `COc1cc2c(cc1OC)CN(CCc1ccc(NC(=O)c3cc(OC)c(OC)cc3NC(=O)c3cnc4ccccc4c3)cc1)CC2` [PCM-0095616], the inhibition at 10 µM under setting [1] was found to be 4.6%.
With `Cc1cccc(Nc2cc(Cl)nc(SCC(=O)O)n2)c1C` [PCM-0095617], the inhibition at 10 µM under setting [1] was found to be 7.7%.
Still for that read-out and setting: with `NC(=O)c1cnc(N[C@@H]2CCCC[C@@H]2N)nc1Nc1cccc(-n2nccn2)c1` [PCM-0095619] the figure was 70.3%; with `CCOc1cc([C@@H](CS(C)(=O)=O)N2C(=O)c3cccc(NC(C)=O)c3C2=O)ccc1OC` [PCM-0095620], 9%.
The same measure, in the same setting: with `O=C(Nc1ccc(S(=O)(=O)Nc2ccccc2Cl)c(Cl)c1)c1ccccn1` [PCM-0095621] the figure was -21.6%; with `O=C(/C=C/c1ccc(O)c(O)c1)c1ccc(O)cc1O` [PCM-0095622], 55.2%; with `O=C(COc1cccc2c(=O)[nH]ccc12)c1ccccc1` [PCM-0095624], 5.4%.
On to `CC1(C)S[C@@H]2[C@H](NC(=O)[C@H](NC(=O)N3CCNC3=O)c3ccccc3)C(=O)N2[C@H]1C(=O)O` [PCM-0095627], for which the inhibition at 10 µM under setting [1] amounted to 30.4%.
Consider `CCCSc1nc(N[C@@H]2C[C@H]2c2ccc(F)c(F)c2)c2nnn([C@@H]3C[C@H](OCCO)[C@@H](O)[C@H]3O)c2n1` [PCM-0095628], for which the inhibition at 10 µM under setting [1] is -34.2%.
Same read-out and setting: with `CCNC(=O)Nc1ccc(-c2nc3c(c(N4CCOC[C@@H]4C)n2)CCN(C2COC2)C3)cc1` [PCM-0095629] the figure was 3.4%; with `COc1ccc(COc2ccc(Cc3cnc(N)nc3N)cc2OC)cc1` [PCM-0095630], -7.6%.
For `O=C(CCCCCN1C(=O)c2cccc3cccc(c23)C1=O)NO` [PCM-0095631], the inhibition at 10 µM under setting [1] was 7.7%.
With `CC1(C)CCC(CN2CCN(c3ccc(C(=O)NS(=O)(=O)c4ccc(NCC5CCOCC5)c([N+](=O)[O-])c4)c(Oc4cnc5[nH]ccc5c4)c3)CC2)=C(c2ccc(Cl)cc2)C1` [PCM-0095632], the inhibition at 10 µM under setting [1] was -5.4%.
With `CCCNS(=O)(=O)Nc1ncnc(OCCOc2ncc(Br)cn2)c1-c1ccc(Br)cc1` [PCM-0095633], under setting [1], the inhibition at 10 µM came out at 10%.
For the compound `CCOc1ccccc1O[C@H](c1ccccc1)[C@H]1CNCCO1` [PCM-0095634], the inhibition at 10 µM under setting [1] is -7%.
Take `C[C@]12CC[C@@H]3c4ccc(OC(=O)c5ccccc5)cc4CC[C@H]3[C@@H]1CC[C@@H]2O` [PCM-0095636]: the inhibition at 10 µM under setting [1] is -7.8%.
The same measure, in the same setting: the value for `Nc1ccc2ncnc(NCCc3ccc(Oc4ccccc4)cc3)c2c1` [PCM-0095674] was -4.1%; that for `Cc1[nH]c2ccccc2c1CCNCc1ccc(/C=C/C(=O)NO)cc1` [PCM-0095679] was 0.8%; that for `CC(C)(C)c1[nH]cnc1/C=c1\[nH]c(=O)/c(=C/c2ccccc2)[nH]c1=O` [PCM-0095681] was -2.1%.
In the case of `Cc1ccc2c(c1)c1c(n2CCc2ccc(C)nc2)CCN(C)C1` [PCM-0095683], the inhibition at 10 µM under setting [1] turned out to be 6.2%.
Regarding `Oc1ccc(Nc2nc(-c3ccc(Cl)cc3)cs2)cc1` [PCM-0095692], under setting [1], the inhibition at 10 µM turned out to be 84.8%.
As for `NC(=O)c1noc([C@H](CCCC2CCCCC2)CC(=O)NO)n1` [PCM-0095693], the inhibition at 10 µM under setting [1] came to 10.1%.
For the compound `Cn1cc(-c2ccncc2)c(-c2ccc(OCc3ccc4ccccc4n3)cc2)n1` [PCM-0095695], the inhibition at 10 µM under setting [1] was -33.5%.
Turning to `O=C1NC(=O)[C@@H](c2cn3c4c(cccc24)CCC3)[C@@H]1c1c[nH]c2ccccc12` [PCM-0095697], the inhibition at 10 µM under setting [1] came out at 29%.
On to `O[C@@H](CNC[C@H](O)[C@H]1CCc2cc(F)ccc2O1)[C@@H]1CCc2cc(F)ccc2O1` [PCM-0095721], for which the inhibition at 10 µM under setting [1] is -14%.
With `CNC(=O)[C@H](Cc1c[nH]c2ccccc12)NC(=O)[C@@H](CC(=O)NO)CC(C)C` [PCM-0095723], the inhibition at 10 µM under setting [1] came to 19.3%.
Consider `O=C(NCc1cccc(O)c1)Nc1nc(-c2ccncc2)cs1` [PCM-0095724], for which, under setting [1], the inhibition at 10 µM is -4.8%.
For `CCOC(=O)c1ccc(NC2CCCCC2)c(N)c1` [PCM-0095725], the inhibition at 10 µM under setting [1] turned out to be 31.7%.
`CCC(=O)Nc1cccc(Oc2nc(Nc3ccc(N4CCN(C)CC4)cc3OC)ncc2Cl)c1` [PCM-0095726]: the inhibition at 10 µM under setting [1] is -2.1%.
`Cc1sc2c(c1C)C(c1ccc(Cl)cc1)=N[C@@H](CC(=O)Nc1ccc(O)cc1)c1nnc(C)n1-2` [PCM-0095727]: the inhibition at 10 µM under setting [1] amounted to 3.1%.
For `Nc1ncnc2n[nH]c(Nc3ccc(F)cc3)c12` [PCM-0095728], the inhibition at 10 µM under setting [1] was determined as 37.9%.
Consider `Cc1cccc(CC(=O)N2CCc3c2ccc(-c2cn(C)c4ncnc(N)c24)c3F)n1` [PCM-0095729], for which, under setting [1], the inhibition at 10 µM was -9%.
Take `O=c1cc(CN2CCOCC2)occ1OCCCCCSc1ccnc2cc(C(F)(F)F)ccc12` [PCM-0095730]: under setting [1], the inhibition at 10 µM is -34.7%.
In the case of `N[C@@H]1CCCN(c2c(/C=C3\SC(=O)NC3=O)cccc2-c2ccccc2)C1` [PCM-0095732], the inhibition at 10 µM under setting [1] worked out at 4.1%.
As for `CC(=O)O/N=C1\C(=O)N(Cc2cc(Cl)ccc2Cl)c2ccc(Cl)cc21` [PCM-0095733], the inhibition at 10 µM under setting [1] was found to be 28.6%.
For the compound `CN(C)CC[C@H](CSc1ccccc1)Nc1ccc(S(=O)(=O)NC(=O)c2ccc(N3CCN(Cc4ccccc4-c4ccc(Cl)cc4)CC3)cc2)cc1[N+](=O)[O-]` [PCM-0095734], under setting [1], the inhibition at 10 µM is 19.3%.
The same measure, in the same setting: with `CCN1CCN(Cc2ccc(Nc3ncc(F)c(-c4cc(F)c5nc(C)n(C(C)C)c5c4)n3)nc2)CC1` [PCM-0095736] the figure was -12.4%; with `CN(C)CCCn1cc(C2=C(c3c[nH]c4ccccc34)C(=O)NC2=O)c2ccccc21` [PCM-0095737], 47.6%.
As for `O=C(/C=C\n1cnc(-c2cc(C(F)(F)F)cc(C(F)(F)F)c2)n1)N1CC(F)(F)C1` [PCM-0095738], under setting [1], the inhibition at 10 µM was -16.2%.
`O=C(NS(=O)(=O)c1ccc(Br)s1)c1ccc(Cl)cc1Cl` [PCM-0095739]: the inhibition at 10 µM under setting [1] was -10%.
Same read-out and setting: the value for `CN(C)C(=O)Nc1cccc(-c2ccc(N(C)C)cc2)c1` [PCM-0095740] was -3.1%; that for `Cc1cc(NC(=O)c2cccc(NC(=O)/C=C/CN(C)C)c2)ccc1Nc1nccc(-c2cccnc2)n1` [PCM-0095741] was 9.7%; that for `O=S(=O)(CC1CS1)c1ccc(Oc2ccccc2)cc1` (stereo not shown) [PCM-0095742] was 20.8%.
On the same count and under the same terms, the value for `Cc1cc(-c2ccc(CC(=O)Nc3ccc(-c4cccnc4)cc3)cc2)ccn1` [PCM-0095743] was -11.6%; that for `CCOC(=O)c1[nH]c2cc(Cl)ccc2c1C(C(=O)NC(C)(C)C)N(C=O)Cc1ccc(Cl)cc1` (stereo not shown) [PCM-0095744] was 13.1%; that for `Cc1cc(Nc2ncc(Cl)c(Nc3ccccc3S(=O)(=O)C(C)C)n2)c(OC(C)C)cc1C1CCNCC1` [PCM-0095745] was 69.7%.
`CCN(CC)CCN(Cc1ccc(-c2ccc(C(F)(F)F)cc2)cc1)C(=O)Cn1c(SCc2ccc(F)cc2)nc(=O)c2c1CCC2` [PCM-0095746]: the inhibition at 10 µM under setting [1] is -30.1%.
As to `Cc1sc2c(c1C)C(c1ccc(Cl)cc1)=N[C@@H](CC(=O)OC(C)(C)C)c1nnc(C)n1-2` [PCM-0095747], the inhibition at 10 µM (read-out: BTK inhibition (%)) came to 10.8%.
`CNCc1ccc(C)c(NC(=O)c2ccc(Nc3nc(-c4ccccc4)c4ccccc4n3)cc2)c1` [PCM-0095748]: the inhibition at 10 µM under setting [1] was found to be 79.5%.
With `CC(C)(Cc1ccc2ccccc2c1)NC[C@@H](O)COc1cccc(Cl)c1C#N` [PCM-0095749], the inhibition at 10 µM under setting [1] was -11.7%.
Consider `COc1cc(-n2c(=S)[nH]c3ccccc3c2=O)c(Cl)cc1Cl` [PCM-0095750], for which the inhibition at 10 µM under setting [1] worked out at 29.3%.
Same read-out and setting: the value for `Cc1c(F)cc(C(=O)NC2CC2)cc1-c1ccc(C(=O)NCC(C)(C)C)cn1` [PCM-0095751] was -14.5%; that for `O=C(/C=C\n1cnc(-c2cc(C(F)(F)F)cc(C(F)(F)F)c2)n1)NNc1cnccn1` [PCM-0095752] was 6.9%; that for `CNc1nc(Nc2cn(C(C)(C)C#N)nc2C)ncc1C(F)(F)F` [PCM-0095754] was 7.6%.
Same read-out and setting: the value for `CCCCCCCCCCCCCCCCn1cc[n+](Cc2ccccc2)c1C` [PCM-0095755] was -51.7%; that for `Cc1cc(C)c(-c2csc(NC(=O)c3ccccc3)n2)c(C)c1` [PCM-0095756] was 41.7%.

As usually defined, the inhibition is the drop in the measured response relative to a control, in per cent.
